Results taken from patent US9828339B2, “Biphenyl derivatives and methods for preparing same” (DONG-A ST CO., LTD, priority 2013, dated 2017).

target: human muscarinic M3 receptor (Homo sapiens (Human), UniProt P20309); experiment: Binding assay on human muscarinic M3 receptor ([3H]-methyl scopolamine displacement); settings: membranes overexpressing human M3 receptor, Ki from IC50 by Cheng-Prusoff, read-out: Binding Affinity to M3 Receptor, Ki
Method: [Experimental Example 1] Binding Assay on Human Muscarinic M3 Receptor
Cell membrane proteins (Perkin Elmer) wherein human muscarinic M3 receptor was overexpressed, [^3H]-methyl scopolamine and test compounds in various concentration were cultured in 0.2 ml of Tris-HCl buffer at 25° C. for 120 minutes. The same was filtered under suction through glass fiber filter (Whatman GF/B), and then the filter was washed 5 times with 1 ml of Tris-HCl buffer. The radioactivity of [^3H]-methyl scopolamine adsorbed on the filter was measured by a liquid scintillation counter. Non-specific binding was evaluated under existence of 5 μM of atropine. Affinity of the compound of the present invention to muscarinic M3 receptor was calculated as the dissociation constant (Ki), which can be calculated from concentration (IC50) of test compounds inhibiting 50% of binding of [^3H]-methyl scopolamine (i.e. labeled ligand) according to Cheng and Prusoff [Cheng and Prusoff, Biochem. Pharmacol., 22, 3099, 1973].

Chain of human muscarinic M3 receptor (P20309 whole entry): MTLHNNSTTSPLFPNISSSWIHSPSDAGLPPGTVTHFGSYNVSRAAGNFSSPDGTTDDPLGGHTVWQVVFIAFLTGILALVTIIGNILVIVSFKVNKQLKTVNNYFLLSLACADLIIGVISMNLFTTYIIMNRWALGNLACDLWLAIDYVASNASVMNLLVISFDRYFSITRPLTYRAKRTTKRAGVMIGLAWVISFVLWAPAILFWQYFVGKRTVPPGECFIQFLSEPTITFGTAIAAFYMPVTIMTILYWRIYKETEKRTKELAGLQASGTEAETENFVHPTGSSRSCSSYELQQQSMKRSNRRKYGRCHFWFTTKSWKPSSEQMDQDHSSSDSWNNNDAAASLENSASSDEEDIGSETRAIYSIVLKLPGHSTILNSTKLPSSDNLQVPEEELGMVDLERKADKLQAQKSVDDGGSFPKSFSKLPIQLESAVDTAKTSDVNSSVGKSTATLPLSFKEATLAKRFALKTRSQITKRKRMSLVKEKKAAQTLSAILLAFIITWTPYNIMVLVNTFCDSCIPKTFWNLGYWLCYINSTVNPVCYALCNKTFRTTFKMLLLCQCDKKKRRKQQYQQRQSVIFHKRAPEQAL

Point of comparison: `CN1CCCC1CCOC(=O)Nc1ccc(F)cc1-c1ccc(Cl)c(F)c1` (stereo not drawn) [Example 54, 2-(1-methylpyrrolidin-2-yl)ethyl(4′-chloro-3′,5-difluoro-[1,1′-biphenyl]-2-yl)carbamate], Ki 126 nM. Against it:
- COc1ccc(NC(=O)OC[C@@H]2CCN(C)C2)c(-c2ccc(F)c(Cl)c2)c1 [Example 147, (R)-(1-methylpyrrolidin-3-yl)methyl(3′-chloro-4′-fluoro-5-methoxy-[1,1′-biphenyl]-2-yl)carbamate] — 1.6-fold lower, 77.4 nM
- CN1CCC[C@H]1COC(=O)Nc1ccc(F)cc1-c1ccc(C(F)(F)F)cc1C(F)(F)F [Example 218, (S)-(1-methylpyrrolidin-2-yl)methyl(5-fluoro-2′,4′-bis(trifluoromethyl)-[1,1′-biphenyl]-2-yl)carbamate] — higher, > 1000 nM
- COc1cc(Cl)cc(-c2cc(F)ccc2NC(=O)OC[C@@H]2CCCN2C)c1 [Example 217, (S)-(1-methylpyrrolidin-2-yl)methyl (3′-chloro-5-fluoro-5′-methoxy-[1,1′-biphenyl]-2-yl)carbamate] — 1.8-fold higher, 223 nM
- Cc1cc(-c2ccccc2NC(=O)OCCC2CCCN2C)cc(C(C)(C)C)c1 (stereo not drawn) [Example 37, 2-(1-methylpyrrolidin-2-yl)ethyl(3′-tert-butyl-5′-methyl-[1,1′-biphenyl]-2-yl)carbamate] — higher, > 1000 nM
- CN1CCC[C@H]1COC(=O)Nc1ccccc1-c1cccc(C#N)c1 [Example 169, (S)-(1-methylpyrrolidin-2-yl)methyl(3′-cyano-[1,1′-biphenyl]-2-yl)carbamate] — 2.2-fold higher, 282 nM
- CN1CCC[C@H]1COC(=O)Nc1ccccc1-c1cccc(N)c1 [Example 170, (S)-(1-methylpyrrolidin-2-yl)methyl(3′-amino-[1,1′-biphenyl]-2-yl)carbamate] — 14-fold lower, 9.23 nM
- CN1CCCC1CCOC(=O)Nc1ccccc1-c1ccc(C(C)(C)C)cc1 (stereo not drawn) [Example 31, 2-(1-methylpyrrolidin-2-yl)ethyl(4′-(tert-butyl)-[1,1′-biphenyl]-2-yl)carbamate] — 2.5-fold higher, 311 nM
- CN1CCC[C@H]1COC(=O)Nc1ccc(F)cc1-c1cc(F)c(F)cc1F [Example 173, (S)-(1-methylpyrrolidin-2-yl)methyl (2′,4′,5,5′-tetrafluoro-[1,1′-biphenyl]-2-yl)carbamate] — 3-fold lower, 42.7 nM
- COc1ccc(NC(=O)OC[C@@H]2CCCN2C)c(-c2ccccc2)c1 [Example 222, (S)-(1-methylpyrrolidin-2-yl)methyl(5-methoxy-[1,1′-biphenyl]-2-yl)carbamate] — 4.5-fold lower, 28.3 nM
- CN1CCC[C@H]1COC(=O)Nc1ccc(F)cc1-c1cc(O)cc(Cl)c1 [Example 216, (S)-(1-methylpyrrolidin-2-yl)methyl(3′-chloro-5-fluoro-5′-hydroxy-[1,1′-biphenyl]-2-yl)carbamate] — 2.1-fold lower, 60.1 nM
- CC(C)CN1CCC[C@H]1COC(=O)Nc1ccccc1-c1ccccc1 [Example 107, (S)-(1-isobutylpyrrolidin-2-yl)-methyl [1,1′-biphenyl]-2-ylcarbamate] — 6-fold higher, 752 nM
- O=C(Nc1ccccc1-c1ccc(F)cc1)OCC1CCCN1 (stereo in doubt) [Example 88, (S)-pyrrolidin-2-ylmethyl (4′-fluoro-[1,1′-biphenyl]-2-yl)carbamate] — within 1.5-fold, 99.7 nM
- CN1CCC[C@H]1COC(=O)Nc1ccc(F)cc1-c1cccc(C(F)(F)F)c1F [Example 214, (S)-(1-methylpyrrolidin-2-yl)methyl(2′,5-difluoro-3′-(trifluoromethyl)-[1,1′-biphenyl]-2-yl)carbamate] — higher, > 1000 nM
- Cc1cccc(-c2ccccc2NC(=O)OC[C@H]2CCCN2C)c1 [Example 110, (R)-(1-methylpyrrolidin-2-yl)-methyl (3′-methyl-[1,1′-biphenyl]-2-yl)carbamate] — 14-fold lower, 9.13 nM
- CN1CCCC1CCOC(=O)Nc1ccccc1-c1ccc(F)c(C(F)(F)F)c1 (stereo not drawn) [Example 38, 2-(1-methylpyrrolidin-2-yl)ethyl(4′-fluoro-3′-(trifluoromethyl)-[1,1′-biphenyl]-2-yl)carbamate] — 4.6-fold higher, 574 nM
- O=C(Nc1ccc(F)cc1-c1ccccc1)OC[C@H]1CCNC1 [Example 82, (S)-pyrrolidin-3-ylmethyl-(5-fluoro-[1,1′-biphenyl]-2-yl)carbamate] — 6.7-fold lower, 18.9 nM
- CN1CCCC1CCOC(=O)Nc1ccccc1-c1cccc(N)c1 (stereo not drawn) [Example 33, 2-(1-methylpyrrolidin-2-yl)ethyl(3′-amino-[1,1′-biphenyl]-2-yl)carbamate] — 7.5-fold lower, 16.8 nM
- COc1ccc(NC(=O)OCCC2CCCN2C)c(-c2cccc(F)c2)c1 (stereo not drawn) [Example 61, 2-(1-methylpyrrolidin-2-yl)ethyl(3′-fluoro-5-methoxy-[1,1′-biphenyl]-2-yl)carbamate] — 1.7-fold higher, 218 nM
- CN1CCCC1CCOC(=O)Nc1ccccc1-c1c(F)cccc1F (stereo not drawn) [Example 185, 2-(1-Methylpyrrolidin-2-yl)ethyl(2′,6′-difluoro-[1,1′-biphenyl]-2-yl)carbamate] — 2.7-fold lower, 46.1 nM
- Cc1ccc(NC(=O)OC[C@@H]2CCNC2)c(-c2ccccc2)c1 [Example 86, (R)-pyrrolidin-3-ylmethyl (5-methyl-[1,1′-biphenyl]-2-yl)carbamate] — within 1.5-fold, 111 nM
- CN1CC[C@H](COC(=O)Nc2ccccc2-c2cc(Cl)cc(Cl)c2)C1 [Example 119, (S)-(1-methylpyrrolidin-3-yl)methyl(3′,5′-dichloro-[1,1′-biphenyl]-2-yl)carbamate] — 3-fold lower, 42.3 nM
- CN1CC[C@@H](COC(=O)Nc2ccccc2-c2cccc(F)c2F)C1 [Example 158, (R)-(1-methylpyrrolidin-3-yl)methyl(2′,3′-difluoro-[1,1′-biphenyl]-2-yl)carbamate] — within 1.5-fold, 120 nM
- CN1CCCC1CCOC(=O)Nc1ccc(Cl)cc1-c1cc(F)cc(F)c1 (stereo not drawn) [Example 69, 2-(1-Methylpyrrolidin-2-yl)ethyl(5-chloro-3′,5′-difluoro-[1,1′-biphenyl]-2-yl)carbamate] — within 1.5-fold, 109 nM
- CN1CCCC1CCOC(=O)Nc1cc(F)ccc1-c1cccc(F)c1 (stereo not drawn) [Example 24, 2-(1-methylpyrrolidin-2-yl)ethyl(3′,4-difluoro-[1,1′-biphenyl]-2-yl)carbamate] — 4.1-fold lower, 31 nM
- Cc1cccc(-c2cc(F)ccc2NC(=O)OC[C@H]2CCCN2C)c1 [Example 111, (R)-(1-methylpyrrolidin-2-yl)-methyl (5-fluoro-3′-methyl-[1,1′-biphenyl]-2-yl)carbamate] — 12-fold lower, 10.8 nM
- CN1CC[C@@H](COC(=O)Nc2ccccc2-c2cccc(C(N)=O)c2)C1 [Example 153, (R)-(1-methylpyrrolidin-3-yl)methyl(3′-carbamoyl-[1,1′-biphenyl]-2-yl)carbamate] — higher, > 1000 nM
- CN1CCCC1CCOC(=O)Nc1ccc(C(F)(F)F)cc1-c1cccc(Cl)c1 (stereo not drawn) [Example 51, 2-(1-Methylpyrrolidin-2-yl)ethyl(3′-chloro-5-(trifluoromethyl)-[1,1′-biphenyl]-2-yl)carbamate] — within 1.5-fold, 101 nM
- CN1CCC[C@H]1COC(=O)Nc1ccccc1-c1ccc(Cl)cc1Cl [Example 167, (S)-(1-methylpyrrolidin-2-yl)methyl(2′,4′-dichloro-[1,1′-biphenyl]-2-yl)carbamate] — 1.9-fold lower, 67.3 nM
- CN1CCCC1CCOC(=O)Nc1ccccc1-c1ccccc1O (stereo not drawn) [Example 36, 2-(1-methylpyrrolidin-2-yl)ethyl(2′-hydroxy-[1,1′-biphenyl]-2-yl)carbamate] — higher, > 1000 nM
- CCN1CC[C@@H](COC(=O)Nc2ccccc2-c2cccc(C)c2)C1 [Example 104, (R)-(1-ethylpyrrolidin-3-yl)methyl (3′-methyl-[1,1′-biphenyl]-2-yl)carbamate] — 8.9-fold lower, 14.2 nM
- CN1CCCC1CCOC(=O)Nc1ccccc1-c1ccc(C(F)(F)F)cc1 (stereo not drawn) [Example 13, 2-(1-methylpyrrolidin-2-yl)ethyl(4′-trifluoromethyl-[1,1′-biphenyl]-2-yl)carbamate] — 1.6-fold lower, 80.1 nM
- COc1ccc(NC(=O)OCCC2CCCN2C)c(-c2ccccc2)c1 (stereo not drawn) [Example 60, 2-(1-methylpyrrolidin-2-yl)ethyl(5-methoxy-[1,1′-biphenyl]-2-yl)carbamate] — within 1.5-fold, 119 nM
- CN1CC[C@H](COC(=O)Nc2ccc(F)cc2-c2cc(O)cc(Cl)c2)C1 [Example 123, (S)-(1-methylpyrrolidin-3-yl)methyl(3′-chloro-5-fluoro-5′-hydroxy-[1,1′-biphenyl]-2-yl)carbamate] — 2.4-fold lower, 52.8 nM
- CN1CCCC1CCOC(=O)Nc1ccc(F)cc1-c1cc(O)cc(Cl)c1 (stereo not drawn) [Example 57, 2-(1-methylpyrrolidin-2-yl)ethyl(3′-chloro-5-fluoro-5′-hydroxy-[1,1′-biphenyl]-2-yl)carbamate] — 3.6-fold lower, 34.8 nM
- COc1ccc(NC(=O)OC[C@@H]2CCCN2C)c(-c2ccc(Cl)c(Cl)c2)c1 [Example 225, (S)-(1-methylpyrrolidin-2-yl)methyl (3′,4′-dichloro-5-methoxy-[1,1′-biphenyl]-2-yl)carbamate] — 2.4-fold lower, 53.6 nM
- CN1CCC[C@H]1COC(=O)Nc1ccc(F)cc1-c1cc(Cl)cc(C(F)(F)F)c1 [Example 215, (S)-(1-methylpyrrolidin-2-yl)methyl(3′-chloro-5-fluoro-5′-(trifluoromethyl)-[1,1′-biphenyl]-2-yl)carbamate] — higher, > 1000 nM
- CN1CCCC1CCOC(=O)Nc1ccc(C(F)(F)F)cc1-c1cccc(F)c1 (stereo not drawn) [Example 49, 2-(1-Methylpyrrolidin-2-yl)ethyl(3′-fluoro-5-(trifluoromethyl)-[1,1′-biphenyl]-2-yl)carbamate] — 2.4-fold higher, 303 nM
- Cc1ccc(NC(=O)OC[C@@H]2CCN(C)C2)c(-c2ccccc2)c1 [Example 97, (R)-(1-methylpyrrolidin-3-yl)methyl (5-methyl-[1,1′-biphenyl]-2-yl)carbamate] — 3.6-fold lower, 35.2 nM
